The numbers were not newly measured in patent publication US20080096926A1, “Treatment Of Cognitive Impairment Using A Selective Dopamine D1 Receptor Agonist” (DrugAbuse Sciences SAS, priority 2002, published 2008), which cites them from elsewhere.

Data set [1] relates to young control monkeys and aged monkeys.
In another data set the test system is MPTP treated monkeys. To be noted: for anti-parkinsonian activity: MPTP treated monkeys.
Data set [2] has as its system non-human primate model of cognitive impairment.
The subject of another data set is monkeys. As to conditions: 0.1, 0.3 and 1 mg/kg/day IM.
For data set [3], the system named is prefrontal cortex of rhesus monkeys. As to conditions: local injections into the prefrontal cortex of rhesus monkeys.
The subject of another data set is healthy volunteers. To be noted: 0.1 mg, 32 healthy volunteers.

SMILES strings stand for the structures. Where a name gives a salt, the structure may show the parent alone.

Consider `Oc1cc2c(cc1O)[C@H]1c3ccccc3CN[C@@H]1CC2` (racemic) [dihydrexidine], for which the “memory performance in monkeys following administration of D1 agonists” value in [1] is given as “Improved memory performance”. The memory performance entry in data set [1] (young control monkeys and aged monkeys) is recorded as “improves memory performance”. Also, the anti-parkinsonian activity entry in the data set with MPTP treated monkeys is “attenuates these parkinsonian signs while increasing eye blink rate”.

Take `CCCc1cc2c(s1)CN[C@@H]1CCc3cc(OC(C)=O)c(OC(C)=O)cc3[C@@H]21` [DAS-431, (−)-trans 9,10-diacetyloxy-2-propyl-4,5,5a,6,7,11b-hexahydro-3-thia-5-azacyclopent-1-ena[c] phenanthrene hydrochloride]: in data set [2] (0.01 μg/kg to 0.1 μg/kg IM, five blocks of five consecutive days), the “reversal of haloperidol-induced working memory impairment” value is “reverse the haloperidol effects”. Moreover, in data set [2] (in some monkeys), the “persistence of treatment effect after the final treatment” value is recorded as “more than a year”. Also, the tolerance entry with monkeys is reported as “tolerance may have developed after 3 days of treatment”. Besides, the “effect following repeated administration” value with MPTP-lesioned macaques (other studies (Michaelides et al. 1995)) was “potent effect is maintained”. Also, in the data set on MPTP-lesioned macaques (three-time daily 0.32 mg/kg s.c. for thirty days), the efficacy over time entry was “no difference over time”. Further, the “antiparkinsonian activity (reported for D1 agonists)” value in the data set with MPTP treated monkeys (model not stated) is recorded as “antiparkinsonian activity”. The “dose relationship of adverse events” value (1 mg to 40 mg IV per day) was “no clear dose relationship with the exception of nausea and vomiting in the cocaine abuser population and of dizziness in all subjects”. The “tolerance to side effects” value (Parkinson's disease population) is “rapid tolerance to nausea and vomiting”. Also, where the note is “in vivo”, the EKG entry is “Transitory EKG changes” and the “severity of adverse events” value is “mild or moderate”. The adverse events result (previous treatment protocols) was “high incidence of dopamine related symptoms such as nausea, vomiting, hypotension, postural hypotension, dizziness, injection and application site reactions”.

As for `Cc1nc2n(c(=O)c1CCN1CCC(c3noc4cc(F)ccc34)CC1)CCCC2` [Risperidone, risperidone], in the data set with schizophrenia (schizophrenia), the executive functioning result was “positive effects”; the “verbal learning and memory” value was “inconsistent results”; the working memory entry is recorded as “positive effects”.

In the case of `CN1CCc2cc(Cl)c(O)cc2[C@H]2c3ccccc3CC[C@@H]21` [SCH39166], the “performance on working memory tasks” value in data set [3] is “induce errors and increase latency of performance”.

`Oc1cc2c(cc1O)C(c1ccccc1)CNCC2` (stereo not drawn) [SKF 38393]: the “memory performance in monkeys following administration of D1 agonists” value in [1] was “Improved memory performance”. In the data set on MPTP treated monkeys, the anti-parkinsonian activity entry is listed as “without anti-parkinsonian activity”. Moreover, in the data set with rats, the food intake result was “decrease food intake”.

As for `C=CCN1CCc2c(cc(O)c(O)c2Cl)C(c2ccccc2)C1` (stereo not drawn) [SKF 82958], the anti-parkinsonian activity entry in the data set on MPTP treated monkeys was “increase locomotor activity and improve parkinsonian score”.

Regarding `CN1CCN(C2=Nc3cc(Cl)ccc3Nc3ccccc32)CC1` [clozapine], the severe side effects result in the data set on schizophrenia (in vivo) is “agranulocytosis”.

Consider `CCCN1C[C@H](CSC)C[C@@H]2c3cccc4[nH]cc(c34)C[C@H]21` [pergolide], for which, in the data set with healthy volunteers, the “effect on spatial memory” value is reported as “positive effect”.
